The results in this text go back to PubChem BioAssay (NCI).

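96-well plates; 48 h exposure; 5 concentrations. Endpoints by linear interpolation between flanking doses. Not reached: highest tested concentration assigned. TGI marks complete inhibition of growth.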

The test system of one assay is SK-MEL-2 melanoma. Description: DTP human tumour cell line panel, 48 h.
With `CC(=O)Nc1ccc(-c2nc3ccccc3s2)cc1`, the TGI is over 100 µM.
The same measure, in the same setting: the figure for `CCOP(=O)(O)C(C)(C)NC` is over 100 µM.
The same measure, in the same setting: the result for `Cc1cccc(C(C)C)c1NC(=O)CC1Sc2ccccc2NC1=O` (stereo unspecified) reads over 100 µM.
In turn, `CC(C)C[C@H]1[C@@H](OCc2ccccc2)COS(=O)N1[C@H](C)c1ccccc1` (stereo partly specified) had a total growth inhibition concentration (TGI) of 36.1 µM.
For the molecule `CC1(C)OC2C(O)CN3CCS[C@H]3C2O1` (stereo partly specified), the TGI is over 100 µM.
Same read-out and setting: the figure for `COC(=O)C1C=CN(N(C)C)C2=C1C(=O)c1c(O)cccc1C2=O` (stereo unspecified) is 7.81 µM.

A further assay deals with SK-MEL-28 melanoma. Description: DTP human tumour cell line panel, 48 h.
Regarding `COc1cc2c3c(c4cc(OC)c(OC)cc4c2cc1OC)C(=O)C1CCC(=O)N1C3` (stereo unspecified), the TGI was over 100 µM.
The same measure, in the same setting: the figure for `O=C(NC(CO)Cc1ccc(Oc2cc(CC(CO)NC(=O)OCc3ccccc3)ccc2OC(=O)OCc2ccccc2)cc1)OCc1ccccc1` (stereo unspecified) is 42.9 µM.
The same measure, in the same setting: the figure for `CC(C)(C)c1cc(C(=O)/C=C/C=C/c2ccccc2)cc(C(C)(C)C)c1O` is over 100 µM; for `O=C(O)CCN(CCC(=O)O)c1ccc(/C=C2\SC(=S)NC2=O)cc1` it is over 100 µM; for `CC(=O)Nc1ccc2cc(C)c(=O)[nH]c2n1` it is over 100 µM.
The same measure, in the same setting: the result for `CCc1nc2ccc(N=NN(C)C)cc2[nH]1` reads over 100 µM.
Molecule `Nc1nc2c(ncn2Cc2ccc(CO)cc2)c(=O)[nH]1` yielded a TGI of over 100 µM.
On to `CN(CCN(C)C(=S)NN)C(=S)NN`, for which the TGI was over 100 µM.
The same measure, in the same setting: the result for `O=C(NS(=O)(=O)OCC(Cl)(Cl)Cl)SCCC(F)(F)C(F)(F)C(F)(F)C(F)(F)C(F)(F)C(F)(F)F` reads 55.7 µM.
On the same count and under the same terms, the figure for `CC(C)=C1C(=O)C[C@]2(C)C[C@H]3/C(=C(/C)CCC12)CC[C@@]3(C)O` (stereo partly specified) is over 50 µM; for `CC(=O)Nc1ccc(-c2nc3ccccc3s2)cc1` it is over 100 µM.
`O=C(NCCCN(CCCCN(CCCNC(=O)C(F)(F)F)CCCc1ccccc1)CCCc1ccccc1)C(F)(F)F` had a TGI of 3.16 µM.
Molecule `CCOP(=O)(O)C(C)(C)NC` displayed a TGI of over 100 µM.
Still for that read-out and setting: the figure for `Cc1cccc(C(C)C)c1NC(=O)CC1Sc2ccccc2NC1=O` (stereo unspecified) is over 100 µM; for `CC(C)C[C@H]1[C@@H](OCc2ccccc2)COS(=O)N1[C@H](C)c1ccccc1` (stereo partly specified) it is over 100 µM.
`CC1(C)OC2C(O)CN3CCS[C@H]3C2O1` (stereo partly specified) returned a TGI of over 100 µM.
The molecule `COC(=O)C1C=CN(N(C)C)C2=C1C(=O)c1c(O)cccc1C2=O` (stereo unspecified) came in with a TGI of 3.87 µM.

In a further assay the test system is SNB-19 CNS. Description: DTP human tumour cell line panel, 48 h.
For `O=C(NC(CO)Cc1ccc(Oc2cc(CC(CO)NC(=O)OCc3ccccc3)ccc2OC(=O)OCc2ccccc2)cc1)OCc1ccccc1` (stereo unspecified), the TGI was over 100 µM.
In turn, `CC(C)(C)c1cc(C(=O)/C=C/C=C/c2ccccc2)cc(C(C)(C)C)c1O` returned a TGI of 77.8 µM.
`O=C(O)CCN(CCC(=O)O)c1ccc(/C=C2\SC(=S)NC2=O)cc1` returned a TGI of over 100 µM.
Molecule `CC(=O)Nc1ccc2cc(C)c(=O)[nH]c2n1` returned a TGI of over 100 µM.
For the molecule `CCc1nc2ccc(N=NN(C)C)cc2[nH]1`, the TGI is over 100 µM.
Same read-out and setting: the figure for `Nc1nc2c(ncn2Cc2ccc(CO)cc2)c(=O)[nH]1` is over 100 µM; for `CN(CCN(C)C(=S)NN)C(=S)NN` it is over 100 µM.
Still for that read-out and setting: the figure for `O=C(NS(=O)(=O)OCC(Cl)(Cl)Cl)SCCC(F)(F)C(F)(F)C(F)(F)C(F)(F)C(F)(F)C(F)(F)F` is 36.2 µM; for `CC(C)=C1C(=O)C[C@]2(C)C[C@H]3/C(=C(/C)CCC12)CC[C@@]3(C)O` (stereo partly specified) it is over 50 µM.
The same measure, in the same setting: the figure for `CC(=O)Nc1ccc(-c2nc3ccccc3s2)cc1` is over 100 µM; for `O=C(NCCCN(CCCCN(CCCNC(=O)C(F)(F)F)CCCc1ccccc1)CCCc1ccccc1)C(F)(F)F` it is 4.17 µM.
Consider `CCOP(=O)(O)C(C)(C)NC`, for which the TGI was over 100 µM.
Still for that read-out and setting: the figure for `Cc1cccc(C(C)C)c1NC(=O)CC1Sc2ccccc2NC1=O` (stereo unspecified) is over 100 µM; for `CC(C)C[C@H]1[C@@H](OCc2ccccc2)COS(=O)N1[C@H](C)c1ccccc1` (stereo partly specified) it is over 100 µM; for `CC1(C)OC2C(O)CN3CCS[C@H]3C2O1` (stereo partly specified) it is over 100 µM.
Same read-out and setting: the result for `COC(=O)C1C=CN(N(C)C)C2=C1C(=O)c1c(O)cccc1C2=O` (stereo unspecified) reads 5.58 µM.

The next assay concerns UACC-62 melanoma. Description: DTP human tumour cell line panel, 48 h.
Molecule `COc1cc2c3c(c4cc(OC)c(OC)cc4c2cc1OC)C(=O)C1CCC(=O)N1C3` (stereo unspecified) showed a TGI of over 100 µM.
`CC(C)(C)c1cc(C(=O)/C=C/C=C/c2ccccc2)cc(C(C)(C)C)c1O` returned a TGI of over 71.4 µM.
On to `O=C(O)CCN(CCC(=O)O)c1ccc(/C=C2\SC(=S)NC2=O)cc1`, for which the TGI was over 100 µM.
The same measure, in the same setting: the figure for `CC(=O)Nc1ccc2cc(C)c(=O)[nH]c2n1` is over 100 µM.
Same read-out and setting: the figure for `CCc1nc2ccc(N=NN(C)C)cc2[nH]1` is over 100 µM; for `Nc1nc2c(ncn2Cc2ccc(CO)cc2)c(=O)[nH]1` it is over 100 µM; for `CN(CCN(C)C(=S)NN)C(=S)NN` it is over 100 µM.
Regarding `O=C(NS(=O)(=O)OCC(Cl)(Cl)Cl)SCCC(F)(F)C(F)(F)C(F)(F)C(F)(F)C(F)(F)C(F)(F)F`, the TGI is 40.6 µM.
Same read-out and setting: the figure for `CC(C)=C1C(=O)C[C@]2(C)C[C@H]3/C(=C(/C)CCC12)CC[C@@]3(C)O` (stereo partly specified) is over 50 µM.
Regarding `CC(=O)Nc1ccc(-c2nc3ccccc3s2)cc1`, the TGI is over 100 µM.
The same measure, in the same setting: the figure for `O=C(NCCCN(CCCCN(CCCNC(=O)C(F)(F)F)CCCc1ccccc1)CCCc1ccccc1)C(F)(F)F` is 3.36 µM; for `CCOP(=O)(O)C(C)(C)NC` it is over 100 µM.
On the same count and under the same terms, the result for `Cc1cccc(C(C)C)c1NC(=O)CC1Sc2ccccc2NC1=O` (stereo unspecified) reads over 100 µM; that for `CC(C)C[C@H]1[C@@H](OCc2ccccc2)COS(=O)N1[C@H](C)c1ccccc1` (stereo partly specified), over 100 µM.
Still for that read-out and setting: the result for `CC1(C)OC2C(O)CN3CCS[C@H]3C2O1` (stereo partly specified) reads over 100 µM; that for `COC(=O)C1C=CN(N(C)C)C2=C1C(=O)c1c(O)cccc1C2=O` (stereo unspecified), 2.37 µM.

The test system of a further assay is UO-31 renal. Description: DTP human tumour cell line panel, 48 h.
For `O=C(NC(CO)Cc1ccc(Oc2cc(CC(CO)NC(=O)OCc3ccccc3)ccc2OC(=O)OCc2ccccc2)cc1)OCc1ccccc1` (stereo unspecified), the TGI is over 100 µM.
The same measure, in the same setting: the figure for `CC(C)(C)c1cc(C(=O)/C=C/C=C/c2ccccc2)cc(C(C)(C)C)c1O` is over 77.3 µM.
The molecule `O=C(O)CCN(CCC(=O)O)c1ccc(/C=C2\SC(=S)NC2=O)cc1` displayed a TGI of over 100 µM.
`CC(=O)Nc1ccc2cc(C)c(=O)[nH]c2n1`: the TGI is over 100 µM.
Molecule `CCc1nc2ccc(N=NN(C)C)cc2[nH]1` showed a TGI of over 100 µM.
On to `Nc1nc2c(ncn2Cc2ccc(CO)cc2)c(=O)[nH]1`, for which the TGI was over 100 µM.
Same read-out and setting: the result for `CN(CCN(C)C(=S)NN)C(=S)NN` reads over 100 µM; that for `O=C(NS(=O)(=O)OCC(Cl)(Cl)Cl)SCCC(F)(F)C(F)(F)C(F)(F)C(F)(F)C(F)(F)C(F)(F)F`, over 100 µM.
On the same count and under the same terms, the figure for `CC(C)=C1C(=O)C[C@]2(C)C[C@H]3/C(=C(/C)CCC12)CC[C@@]3(C)O` (stereo partly specified) is over 50 µM; for `CC(=O)Nc1ccc(-c2nc3ccccc3s2)cc1` it is over 100 µM; for `O=C(NCCCN(CCCCN(CCCNC(=O)C(F)(F)F)CCCc1ccccc1)CCCc1ccccc1)C(F)(F)F` it is 2.52 µM.
The same measure, in the same setting: the figure for `CCOP(=O)(O)C(C)(C)NC` is over 100 µM.
Take `Cc1cccc(C(C)C)c1NC(=O)CC1Sc2ccccc2NC1=O` (stereo unspecified): the TGI was over 100 µM.
Still for that read-out and setting: the result for `CC(C)C[C@H]1[C@@H](OCc2ccccc2)COS(=O)N1[C@H](C)c1ccccc1` (stereo partly specified) reads over 100 µM.
Still for that read-out and setting: the result for `CC1(C)OC2C(O)CN3CCS[C@H]3C2O1` (stereo partly specified) reads over 100 µM; that for `COC(=O)C1C=CN(N(C)C)C2=C1C(=O)c1c(O)cccc1C2=O` (stereo unspecified), 15.8 µM.
